The text below walks through data of patent US20170210757A1 (ALFA WASSERMANN S.P.A., priority 2003, published 2017).

Data set [1] is described as follows: Hygroscopicity and humidity-dependent transition between polymorphic forms. The settings on record: for hygroscopicity: reversibly absorb water under suitable conditions of pressure and humidity. It is filed as physicochemical. The source says:
Both the form γ and the forms α and β of rifaximin are hygroscopic, they reversibly absorb water in time in the presence of suitable environmental conditions of pressure and humidity and are susceptible of transformation from one form into another.

Data set [2] in a line: Bioavailability in dogs by oral route (plasma rifaximin by LC-MS/MS). It is filed as in vivo, Beagle female dogs. The protocol: Twelve 20 week pure-bred Beagle females dogs, and weighing between 5.0 and 7.5 kg, have been divided into three groups of four.
Each sample was transferred into an heparinized tube and was centrifuged; the plasma was divided into 50μl two aliquots and frozen at −20° C.
Tmax=time at which the Cmax is reached;
AUC=area under the concentration-time curve calculated through the linear trapezoidal rule.

A short description of data set [3]: Intrinsic dissolution test (USP 27 monograph 1087). It is filed as physicochemical. The source says: The die-holder containing the compacted pellet has then been mounted on a laboratory stirring device, immersed in a dissolution medium and rotated by means of the stirring device.
A compacted pellet was formed in the die with a single face of defined area exposed on the bottom of the die so that from 50% to 75% of the compacted pellet could dissolve in an appropriate dissolution medium.
The holder containing the die was mounted on a laboratory stirring device, immersed in a glass vessel containing a dissolution medium and rotated at a rotation speed of 100 rpm by means of the stirring device, while keeping the temperature of the dissolution medium at 37±0.5° C. […]

The mark [4] stands for this setting: single oral administration of 100 mg/kg by capsules to female dogs, plasma, listed as Polimorph γ, 100 mg/kg.
Where [5] appears, read: single oral administration of 100 mg/kg by capsules to female dogs, plasma, listed as Polimorph α, 100 mg/kg.
[6] abbreviates: single oral administration of 100 mg/kg by capsules to female dogs, plasma, listed as Polimorph β, 100 mg/kg.

Like-named read-outs stand apart in the source and are kept apart here. Bounds are passed on as bounds.

Turning to `CO[C@H]1/C=C/O[C@@]2(C)Oc3c(C)c(O)c4c(O)c(c5c(nc6cc(C)ccn65)c4c3C2=O)NC(=O)/C(C)=C\C=C\[C@H](C)[C@H](O)[C@@H](C)[C@@H](O)[C@@H](C)[C@H](OC(C)=O)[C@@H]1C` [rifaximin γ, rifaximin], the hygroscopicity result in data set [1] is recorded as “hygroscopic”. In addition, the peak concentration (Cmax) (as a rule, the peak of the concentration-time curve) in data set [2] (female, Beagle, dog, plasma, po, 100 mg/kg, oral 100 mg/kg, Beagle female dogs, read-out: Cmax) came out at 668 ng/mL. The “absorption in respect of rifaximin α and rifaximin β” value in data set [2] (oral 100 mg/kg, Beagle female dogs) is “more than 102 times”. Further, the “AUC0-24 h (summary embodiment)” value in data set [2] (pharmaceutical composition comprising the polymorphic form, conditions not stated, listed as rifaximin in polymorphic form γ) is reported as “about 4000 ng·h/ml”. Also, in data set [2] (setting [4]), the “AUC0-24 Mean” value is 3908 ng·h/mL and the “Cmax Mean” value is 668.22 ng/mL.
For the molecule `CO[C@H]1/C=C/O[C@@]2(C)Oc3c(C)c(O)c4c(O)c(c5c(nc6cc(C)ccn65)c4c3C2=O)NC(=O)/C(C)=C\C=C\[C@H](C)[C@H](O)[C@@H](C)[C@@H](O)[C@@H](C)[C@H](OC(C)=O)[C@@H]1C` [rifaximin α, rifaximin], in data set [1] (relative humidity higher than 50% for 12 to 48 hours), the “solid form transition under humidity” value is “changes into the polymorphic form β”. Besides, the hygroscopicity entry in data set [1] was “hygroscopic”. Moreover, in data set [2] (Beagle, dog, plasma, oral, 100 mg/kg, pharmaceutical composition comprising the polymorphic form, conditions not stated, read-out: Cmax (summary embodiment)), the peak concentration (Cmax) was approximately 2 ng/mL. Moreover, the Tmax (in general, the time from dosing to the highest level) in data set [2] (female, Beagle, dog, plasma, po, 100 mg/kg, single oral administration of 100 mg/kg by capsules to female dogs) stood at 9.5 h. Also, the “AUC0-24 h (summary embodiment)” value in data set [2] (pharmaceutical composition comprising the polymorphic form, conditions not stated, listed as rifaximin in polymorphic form α) is listed as “about 13 ng·h/ml”. Further, in data set [2] (setting [5]), the “AUC0-24 Mean” value was 13 ng·h/mL and the “Cmax Mean” value was 2.632 ng/mL. Moreover, in data set [3] (phosphate buffer pH 7.4, 37°C, with sodium lauryl sulfate, also at 0.1% and 0.3% and without surfactant), the “disintegration of the compacted pellet (time)” value was not above 10 min.
Consider `CO[C@H]1/C=C/O[C@@]2(C)Oc3c(C)c(O)c4c(O)c(c5c(nc6cc(C)ccn65)c4c3C2=O)NC(=O)/C(C)=C\C=C\[C@H](C)[C@H](O)[C@@H](C)[C@@H](O)[C@@H](C)[C@H](OC(C)=O)[C@@H]1C` [rifaximin β, rifaximin], for which the hygroscopicity entry in data set [1] was “hygroscopic”. Moreover, the “AUC0-24 h (summary embodiment)” value in data set [2] (pharmaceutical composition comprising the polymorphic form, conditions not stated, listed as rifaximin in polymorphic form β) is listed as “about 11 ng·h/ml”. Also, the “AUC0-24 Mean” value in data set [2] (setting [6]) came to 11 ng·h/mL. For the same molecule, the “tmax Mean” value in data set [2] (setting [6]) came out at 4 h. The molecule further registered an Intrinsic dissolution rate in data set [3] (0.1M aqueous phosphate buffer pH 7.4 with 0.45% sodium lauryl sulfate, 37°C, listed as β polymorph) of 0.0147 mg/min/cm^2. Moreover, the Rifaximin dissolved stood at 0.28 mg/cm^2 in data set [3] (15 min, 0.1M aqueous phosphate buffer pH 7.4 with 0.45% sodium lauryl sulfate, 37°C, listed as β polymorph); 0.50 mg/cm^2 in data set [3] (30 min, 0.1M aqueous phosphate buffer pH 7.4 with 0.45% sodium lauryl sulfate, 37°C, listed as β polymorph); 0.71 mg/cm^2 in data set [3] (45 min, 0.1M aqueous phosphate buffer pH 7.4 with 0.45% sodium lauryl sulfate, 37°C, listed as β polymorph); 0.94 mg/cm^2 in data set [3] (60 min, 0.1M aqueous phosphate buffer pH 7.4 with 0.45% sodium lauryl sulfate, 37°C, listed as β polymorph). In data set [3] (pharmaceutical composition comprising the polymorphic form, conditions not stated), the “intrinsic dissolution rate (summary embodiment)” value was “about 0.01 mg/min/cm^2”.
